Here are results for four molecules from patent publication US20070117182A1, “Nucleic acids conferring transcriptional responsiveness on the RANKL gene promoter and uses thereof” (Wisconsin Alumni Research Foundation, priority 2005, published 2007).

Common to all, as to assay type: cell-based, mouse
In one assay the test system is RANKL. Briefly: RT-PCR of RANKL transcripts in treated ST2 cells. The settings on record: treated up to 24 hours, agent alone, vs beta-actin controls. Here is the method:
FIG. 2. Induction of RANKL in ST2 cells by hormones and cytokines. ST2 cells were treated with the agents indicated for periods up to 24 hours. Total RNA was isolated and subjected to RT-PCR using a primer set to mouse RANKL and beta-actin. Positive vitamin D target control genes include Cyp24 and osteopontin (OPN).
The inventors first established a model in which RANKL is both induced in response to 1,25(OH)2D3, PTH (forskolin) and oncostatin M (OSM), and is capable of supporting osteoclast formation when co-cultured with bone marrow monocyte- or spleen cell-derived osteoclast precursors. While a number of cell types express RANKL and induce osteoclastogenesis, the historical literature strongly supports mouse ST2 cells in this capacity, prompting the inventors to focus on this stromal/preosteoblastic line for initial studies. […] Each of these components is known to both induce RANKL expression and promote osteoclast formation as well. […] Indeed, GC effects are widely observed. […] The ability of GCs to enhance osteoclast formation in coculture assays in the presence of 1,25(OH)2D3, however, is likely due also to its coordinate ability to suppress OPG.

The test system of assay [1] is D5 region of the RANKL gene (RL-CCL). Briefly: pTK-RL(D5) luciferase reporter in ST2 cells. The settings on record: 24 hours; for luciferase activity via D5 (RL-CCL), TK promoter: agent alone. On the procedure: FIG. 6. Transcriptional activity of the D5 regions of the RANKL gene in the context of the TK promoter. Sequence surrounding the D5 region (1072 bp) was cloned into the pTK-luciferase vector and termed pTK-RL(D5). […] Cells were harvested after 24 hours and luciferase activity assessed. B) ST2 cells were transfected as in A above but without the VDR expression vector and evaluated as in A. C) COS-7 cells were transfected and evaluated as in A above. Luciferase was normalized using beta-gal activity. Data represent the mean of triplicate determinations (SEM). The pTK-luc control vector was unresponsive to any of the inducers (see FIG. 9). *, p<0.05 vs no treatment control.
FIG. 11. […] A) Coordinates of the RL-D5 and the RL-D5b regions in the mouse RANKL upstream region. ST2 cells were transfected with either B) pTK-luc or pTK-mRL-D5 or C) pTK-luc and pTK-mRL-D5b and then treated with the indicated inducers. Cells were harvested after 24 hours and evaluated for luciferase activity. Luciferase was normalized using β-gal activity. Data represent the mean of triplicate determinations (SEM). *, p<0.05 vs no treatment control. **, p<0.05 vs no treatment and 1,25(OH)2D3 treated controls.
The activity of an enhancer must be evaluated in the context of its local environment, preferentially in the context of both other enhancers and its native promoter. In the case of the RANKL gene, however, this is clearly not possible due to the numbers and the distant locations of the potential regulatory regions. To tackle this problem, the inventors isolated approximately 800 to 1100 bp fragments of each region (D1 to D5) as identified through the ChIP/Chip analysis, cloned each into a luciferase expression vector under the control of a viral thymidine kinase (TK) minimal promoter, and explored the 1,25(OH)2D3- and GC-inducible activity of each following transfection into ST2 cells. […] Nevertheless, positive results provide added support for the potential regulatory capabilities of an individual DNA fragment even when examined in isolation. […] This induction was magnified by the addition of a VDR expression vector (FIG. 6a), but was also evident in the absence of such addition (FIG. 6b). […] To ensure that the viral TK promoter background was not contributing to our evaluation, the inventors cloned the mouse RANKL promoter (−100 to +65) into pGL3, inserted RL D5 and evaluated its activity in ST2 cells as well.
Based upon the above data, the inventors explored the possibility that similar to 1,25(OH)2D3, forskolin, PGE2 and OSM might be capable of activating transcription via the D5 fragment of the RANKL gene. […] Cells were harvested 24 hours later and evaluated for luciferase activity as in the previous experiments. […]
(Reporter assays use an easily measured gene product as a stand-in for the process of interest.)

Assay [2] deals with RANKL gene upstream regions D1-D5. Briefly: ChIP analysis of transcription factor binding to the RANKL gene in ST2 cells. The following applies: 6 hours. Here is the method: FIG. 4. Confirmation of ChIP/chip data using ChIP. A) Linear arrangement of RANKL locus re-oriented 5′ to 3′ (left to right) indicating the positions of D5 to D1, P2, and P1/TSS. Designation of primer sets used for detection in ChIP is indicated. B) ST2 cells were treated with either vehicle or 1,25(OH)2D3 and then subjected to ChIP using antibodies to VDR, RXR or IgG. Precipitated DNA was evaluated using the primer sets identified in A.
FIG. 5. […] ST2 cells were treated with the above hormones and after 6 hours subjected to ChIP analysis using antibodies to VDR, RXR, GR, C/EBP, β, RNA pol II, and IgG. Precipitated DNA was evaluated for enrichment of the indicated regions of the RANKL gene.
FIG. 10. ChIP analysis of transcription factor binding to RL D5, the TSS and intervening regions of the RANKL locus in response to 1,25(OH)2D3, forskolin and oncostatin M (OSM). ST2 cells were treated for 6 hr with the indicated inducing agents and then subjected to ChIP analysis using antibodies to the indicated factors. Precipitated DNA was analyzed by PCR for enrichment of IS7, D5, IS6 and the TSS of the RANKL gene locus. See text for details of results.
The isolated DNA was then evaluated by PCR using primers as depicted in the diagram seen in FIG. 4a which were designed to amplify small DNA segments within the 5 regions as well as segments located at intervening sites (IS) outside the five regions.
The inventors hypothesized that GC's might perhaps enhance VDR binding to RANKL regulatory regions. […] The inventors focused on the RL-CCL region (D5) and amplified the precipitated DNA using primers to this region of the gene as well as to D4, D3 and TSS and intervening regions. […] The inventors also explored the possibility that C/EBPbeta might similarly participate in the RANKL activation process. C/EBPbeta plays a significant role in the regulation of osteoblastic genes, and is found associated with both 1,25(OH)2D3 and GC target genes.
In addition to 1,25(OH)2D3 and GCs, RANKL expression is also known to be modulated by such factors as PTH, PGE2, the gp130-activating cytokines IL-6 and OSM, as well as IL-1beta and TNFalpha. […] Forskolin was used as substitute for PTH, however, as ST2 cells are deficient in PTH receptor (PTHR). Both PTH/forskolin and PGE2 are known to induce RANKL gene expression via CREB whereas OSM functions via Stat3. […] The inventors therefore explored the possibility that the RL-CCL might represent a focal target for these inducers via either CREB or Stat3 in the RANKL gene locus. ST2 cells were treated with either vehicle, 1,25(OH)2D3, forskolin or OSM for a 6 hour period and then subjected to a ChIP analysis using antibodies to VDR, C/EBPbeta, CREB, phospho-CREB, ATF-2, ATF-4, Stat3, RNA pol II and control IgG. Isolated DNA was then subjected to amplification using primers corresponding to the D5 region (RL-CCL) of the RANKL gene. As controls, the inventors also assessed the extent to which the immunoprecipitations led to the enrichment of DNA at sites surrounding the D5 region of the RANKL gene.

Regarding `CCCCC[C@H](O)/C=C/[C@H]1[C@H](O)CC(=O)[C@@H]1C/C=C\CCCC(=O)O` [PGE2], the RANKL transcripts entry in the assay on RANKL is given as “substantial time-dependent increase”. Also, the “luciferase activity via D5 (RL-CCL), TK promoter” value in assay [1] was “not forskolin or PGE2”.
Regarding oncostatin M [OSM], in assay [2], the “CREB binding to the D5 region” value is recorded as “modestly increased CREB association” and the “Stat3 binding to the D5 region” value is “induces significant binding of Stat3”. For the same molecule, the “VDR binding to RANKL regulatory regions (D5)” value in assay [2] (agent alone) is “no effect on VDR binding”. The RANKL transcripts entry in the assay on RANKL was “substantial time-dependent increase”. Further, in assay [1] (OSM 20 ng/ml), the “increase in transcriptional output via mRL-D5” value is 3 fold. Moreover, in assay [1], the “luciferase activity via D5 (RL-CCL), TK promoter” value was “responsive”.
Take “IL-1beta: cytokine known to induce RANKL expression”: the RANKL transcripts result with RANKL is given as “substantial time-dependent increase”.
With TNFalpha, the RANKL transcripts result in the assay on RANKL is “substantial time-dependent increase”.
